Laboratory results published in patent US6303639A, “Propanolamine derivatives substituted by heterocyclic radicals, processes for their preparation, pharmaceuticals comprising these compounds and their use” (Aventis Pharma Deutschland GmbH, priority 1998, dated 2001).

Molecular target: T1, Na+-dependent bile acid transportation system (intestinal bile acid transportation system in the terminal small intestine) (Oryctolagus cuniculus, UniProt Q28727)
T1 construct: Brush border membrane vesicles from the intestinal cells of the small intestine were prepared by the so-called Mg^2+ precipitation method; from tissue; host or cells: brush border membrane vesicles from the terminal 7/10 of the small intestine (ileum) of male New Zealand rabbits
T1 sequence (Q28727 1-347): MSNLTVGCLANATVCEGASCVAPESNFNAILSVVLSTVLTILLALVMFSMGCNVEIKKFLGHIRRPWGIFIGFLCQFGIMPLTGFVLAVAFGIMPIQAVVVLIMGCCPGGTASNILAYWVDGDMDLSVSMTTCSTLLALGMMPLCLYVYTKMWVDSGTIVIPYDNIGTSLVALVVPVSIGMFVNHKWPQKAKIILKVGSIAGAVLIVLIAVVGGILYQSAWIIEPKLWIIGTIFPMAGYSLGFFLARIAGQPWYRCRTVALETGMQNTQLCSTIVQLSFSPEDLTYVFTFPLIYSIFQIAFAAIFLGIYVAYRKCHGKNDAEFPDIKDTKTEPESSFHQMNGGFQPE
Experiment: Inhibition of Na+-dependent [3H]-taurocholate uptake in brush border membrane vesicles of the ileum of rabbits
Assay type: biochemical
Conditions: rabbit ileum brush border membrane vesicles, 50 μM taurocholate, usually 1 minute incubation
Description: Biological testing of the compounds according to the invention was carried out by determining the inhibition of [^3 H]-taurocholate uptake in brush border membrane vesicles of the ileum of rabbits. The inhibition test was carried out as described below.
Test 1. Preparation of Brush Border Membrane Vesicles from the Ileum of Rabbits
Brush border membrane vesicles from the intestinal cells of the small intestine were prepared by the so-called Mg^2+ precipitation method as follows. Male New Zealand rabbits (2 to 2.5 kg body weight) were sacrificed by intravenous injection of 0.5 ml of T61®, an aqueous solution of 2.5 mg of tetracaine HCl, 100 mg of embutramide and 25 mg of mebezonium iodide. The small intestine was removed and flushed with ice-cold physiological saline solution. The terminal 7/10 of the small intestine (measured in the oral-rectal direction, i.e. the terminal ileum, which contains the active Na^+ -dependent bile acid transportation system) was used for preparation of the brush border membrane vesicles. The intestines were frozen in plastic bags under nitrogen at -80° C.
For preparation of the membrane vesicles, the frozen intestines were thawed at 30° C. in a water-bath. The mucosa were peeled off and suspended in 60 ml of ice-cold 12 mM TRIS-HCl buffer (pH 7.1)/300 mM mannitol, 5 mM EGTA/10 mg/l of phenylmethyl-sulfonyl fluoride/1 mg/l of trypsin inhibitor from soybeans (32 U/mg)/0.5 mg/l of trypsin inhibitor from the bovine lung (193 U/mg)/5 mg/l of bacitracin. After dilution to 300 ml with ice-cold distilled water, the mixture was homogenized with an Ultraturrax (18-rod, IKA Werk Staufen, Germany) for 3 minutes at 75% of the maximum power, while cooling with ice. After addition of 3 ml of 1 M MgCl2 solution (final concentration 10 mM), the mixture was left to stand for exactly 1 minute at 0° C. The cell membranes aggregated by addition of Mg^2+ and precipitated, with the exception of the brush border membranes. After centrifugation for 15 minutes at 3000×g (5000 rpm, SS-34 rotor), the precipitate was discarded and the supernatant, which contained the brush border membranes, was centrifuged at 48000×g (20000 rpm, SS-34 rotor) for 30 minutes. The supernatant was discarded and the precipitate was rehomogenized in 60 ml of 12 mM TRIS/HCI buffer (pH 7.1)/60 mM mannitol, 5 mM EGTA with a Potter Elvejhem homogenizer (Braun, Melsungen, 900 rpm, 10-stroke). After addition of 0.1 ml of 1 M MgCl2 solution and an incubation time of 15 minutes at 0° C., the mixture was centrifuged again at 3000×g for 15 minutes. The supernatant was then centrifuged again at 48000×g (20000 rpm, SS-34 rotor) for 30 minutes. The precipitate was taken up in 30 ml of 10 mM TRIS/HEPES buffer (pH 7.4)/300 mM mannitol and resuspended by 20 strokes in a Potter Elvejhem homogenizer at a 1000 rpm. After centrifugation at 48000×g (20000 rpm, SS-34 rotor) for 30 minutes, the precipitate was taken up in 0.5 to 2 ml of TRIS/HEPES buffer (pH 7.4)/280 mM mannitol (final concentration 20 mg/ml) and resuspended with the aid of a tuberculin syringe with a 27-gauge needle. The vesicles were either used for the transportation investigations directly after the preparation, or stored in 4 mg portions in liquid nitrogen at -196° C.
Test 2. Inhibition of the Na^+ -dependent [^3 H]Taurocholate Uptake in Brush Border Member Vesicles of the Ileum
The uptake of substrates into the brush border membrane vesicles described above was determined by means of the so-called membrane filtration technique. 10 μl of the vesicle suspension (100 μg of protein) were pipetted as drops onto the wall of a polystyrene incubation tube (11×70 mm) which contained the incubation medium with the corresponding ligands (90 μl). […]

Compound | Biological Test: quotient of the IC50Na values of the reference substance taurochenodeoxycholate (TCDC) and of the test substance
Cc1nc(C)c(C(O)C(c2ccccn2)C(Nc2ccccn2)c2ccccc2)s1 (stereo not shown) [Example 14] | 0.66
OC(c1cc(-c2ccccc2)on1)C(c1ccccn1)C(Nc1ccccn1)c1ccccc1 (stereo not shown) [Example 41] | 0.60
OC(c1ccccc1)C(c1ccc2ccccc2n1)C(Nc1ccccn1)c1ccccc1 (stereo not shown) [Example 2] | 0.83
OC(c1cccs1)C(c1ccccn1)C(Nc1ccccn1)c1ccccc1 (stereo not shown) [Example 24] | 0.22
OC(c1ccccc1)C(c1cnc2ccccc2n1)C(Nc1ccccn1)c1ccccc1 (stereo not shown) [Example 6] | 0.57
Cc1noc(C)c1C(O)C(c1ccccn1)C(Nc1ccccn1)c1ccccc1 (stereo not shown) [Example 31] | 0.37
Cc1nc(-c2ccncc2)sc1C(O)C(c1ccccn1)C(Nc1ccccn1)c1ccccc1 (stereo not shown) [Example 51] | 0.52
Cc1nc(C(O)C(c2ccccn2)C(Nc2ccccn2)c2ccccc2)c(C)o1 (stereo not shown) [Example 25] | 0.46
Cc1cc(C(O)C(c2ccccn2)C(Nc2ccccn2)c2ccccc2N)no1 (stereo not shown) [Example 49] | 0.77
OC(c1cnc2ccccc2c1)C(c1ccccn1)C(Nc1ccccn1)c1ccccc1 (stereo not shown) [Example 19] | 0.42
Cn1ncnc1C(O)C(c1ccccn1)C(Nc1ccccn1)c1ccccc1 (stereo not shown) [Example 47] | 0.35
OC(c1cccs1)C(c1ccccn1)C(Nc1ccccn1)c1ccccc1 (stereo not shown) [Example 23] | 0.23
Cc1nc(-c2ccncc2)sc1C(O)C(c1ccccn1)C(Nc1ccccn1)c1ccccc1 (stereo not shown) [Example 52] | 0.40
OC(c1cccs1)C(c1ccccn1)C(Nc1ccccn1)c1ccccc1 (stereo not shown) [Example 22] | 0.19
Cc1nc(C(O)C(c2ccccn2)C(Nc2ccccn2)c2ccccc2N)c(C)o1 (stereo not shown) [Example 48] | 0.80
OC(c1cnccn1)C(c1ccccn1)C(Nc1ccccn1)c1ccccc1 (stereo not shown) [Example 12] | 0.24
Cn1ccnc1C(O)C(c1ccccn1)C(Nc1ccccn1)c1ccccc1 (stereo not shown) [Example 42] | 0.87

Compound | Biological Test: quotient of the IC50Na values of the reference substance taurochenodeoxycholate (TCDC) and of the test substance
Cc1noc(C)c1C(O)C(c1ccccn1)C(Nc1ccccn1)c1ccccc1[N+](=O)[O-] (stereo not shown) [Example 43] | 0.23
Cc1noc(C)c1C(O)C(c1ccccn1)C(Nc1ccccn1)c1ccccc1N (stereo not shown) [Example 44] | 0.74
OC(c1ccccc1)C(c1cnc2ccccc2c1)C(Nc1ccccn1)c1ccccc1 (stereo not shown) [Example 9] | 0.35
OC(c1cccs1)C(c1ccccn1)C(Nc1ccccn1)c1ccccc1 (stereo not shown) [Example 21] | 1.16
Cc1ccc(C(O)C(c2ccccn2)C(Nc2ccccn2)c2ccccc2)s1 (stereo not shown) [Example 27] | 1.02
OC(c1nccs1)C(c1ccccc1)C(Nc1ccccn1)c1ccccc1 (stereo not shown) [Example 4] | 0.1
COc1ccsc1C(O)C(c1ccccn1)C(Nc1ccccn1)c1ccccc1 (stereo not shown) [Example 37] | 9.53
OC(c1cnc2ccccc2c1)C(c1ccccn1)C(Nc1ccccn1)c1ccccc1 (stereo not shown) [Example 20] | 0.23
Cc1nc(-c2ccncc2)sc1C(O)C(c1ccccn1)C(Nc1ccccn1)c1ccccc1 (stereo not shown) [Example 50] | 0.79
Cc1nc(C(O)C(c2ccccn2)C(Nc2ccccn2)c2ccccc2)sc1C (stereo not shown) [Example 33] | 0.24
Nc1ccccc1C(Nc1ccccn1)C(c1ccccn1)C(O)c1ccon1 (stereo not shown) [Example 55] | 0.31
OC(c1cc2ccccc2[nH]1)C(c1ccccn1)C(Nc1ccccn1)c1ccccc1 (stereo not shown) [Example 46] | 0.22
OC(c1cnc2ccccc2c1)C(c1ccccn1)C(Nc1ccccn1)c1ccccc1 (stereo not shown) [Example 18] | 0.37
OC(c1ccc(Cl)s1)C(c1ccccn1)C(Nc1ccccn1)c1ccccc1 (stereo not shown) [Example 26] | 0.26
OC(c1cnccn1)C(c1ccccn1)C(Nc1ccccn1)c1ccccc1 (stereo not shown) [Example 11] | 0.24
Cc1nc(C)c(C(O)C(c2ccccn2)C(Nc2ccccn2)c2ccccc2N)s1 (stereo not shown) [Example 39] | 0.65
OC(c1ccccc1)C(c1cnc2ccccc2n1)C(Nc1ccccn1)c1ccccc1 (stereo not shown) [Example 7] | 0.22
